Results published in ChEMBL document CHEMBL6092194, “Development of membrane-targeting chalcone derivatives as antibacterial agents against multidrug-resistant bacteria” (Eur J Med Chem, 2024).

Assays:
Staphylococcus aureus [1] = test: Antibacterial activity against erythromycin susceptible Staphylococcus aureus ATCC25923 by broth microdilution assay; format: functional
Staphylococcus aureus [2] = test: Antibacterial activity against penicillin-resistant Staphylococcus aureus ATCC31007 by broth microdilution assay; format: functional
Staphylococcus aureus [3] = test: Antibacterial activity against penicillin-resistant Staphylococcus aureus ATCC43300 by broth microdilution assay; format: functional
Bacillus subtilis = test: Antibacterial activity against penicillin-susceptible Bacillus subtilis ATCC9372 by broth microdilution assay; format: functional
Enterococcus faecalis = test: Antibacterial activity against vancomycin susceptible Enterococcus faecalis ATCC29212 by broth microdilution assay; format: functional
[4] = test system: Staphylococcus epidermidis; test: Antibacterial activity against erythromycin-susceptible Staphylococcus epidermidis ATCC12228 by broth microdilution assay; format: functional
Klebsiella pneumoniae = test: Antibacterial activity against Klebsiella pneumoniae ATCC10031 by broth microdilution assay; format: functional
Acinetobacter baumannii = test: Antibacterial activity against Acinetobacter baumannii ATCC19606 by broth microdilution assay; format: functional
Escherichia coli = test: Antibacterial activity against penicillin-susceptible Escherichia coli ATCC25922 by broth microdilution method; format: functional
Pseudomonas aeruginosa = test: Antibacterial activity against penicillin-susceptible Pseudomonas aeruginosa ATCC27853 by broth microdilution method; format: functional
[5] = Hemolytic activity in red blood cells (unknown origin); format: toxicity, cell-based, Erythrocyte
[6] = Selectivity index, ratio of HC50 for hemolytic activity in red blood cells (unknown origin) to MIC for antibacterial activity against penicillin-resistant Staphylococcus aureus ATCC43300; format: toxicity, cell-based, RBC; settings: read-out: Selectivity Index

| Compound | MIC (Staphylococcus aureus [1]) [µg/mL] | MIC (Staphylococcus aureus [2]) [µg/mL] | MIC (Staphylococcus aureus [3]) [µg/mL] | MIC (Bacillus subtilis) [µg/mL] | MIC (Enterococcus faecalis) [µg/mL] | MIC [4] [µg/mL] | MIC (Klebsiella pneumoniae) [µg/mL] | MIC (Acinetobacter baumannii) [µg/mL] | MIC (Escherichia coli) [µg/mL] | MIC (Pseudomonas aeruginosa) [µg/mL] | HC50 [5] [µg/mL] | selectivity ratio [6] |
| --- | --- | --- | --- | --- | --- | --- | --- | --- | --- | --- | --- | --- |
| CCCCCC[N+](C)(C)CCCCCCCOc1ccc(C(=O)/C=C/c2ccccc2)cc1.[Br-] | 2 | 4 | 4 | 2 | 4 | 2 | 16 | 16 | > 128 | > 128 | 61.6 | 15.4 |
| CCCCCCCCCC[N+](C)(C)CCCCCCCOc1ccc(C(=O)/C=C/c2ccccc2)cc1.[Br-] | 4 | 8 | 4 | 4 | 8 | 4 | 32 | 128 | > 128 | > 128 | 50.5 | 12.6 |
| CCCCCCNC(=O)C[N+](C)(C)CCCOc1ccc(/C=C/C(=O)c2ccc(OCCC[N+](C)(C)CC(=O)NCCCCCC)cc2)cc1.[Br-].[Br-] | 1 | 1 | 1 | 2 | 2 | 1 | 4 | 32 | 2 | 32 | 234 | 329 |
| CCCCCCCC[N+](C)(C)CCCCCCCOc1ccc(C(=O)/C=C/c2ccccc2)cc1.[Br-] | 2 | 4 | 2 | 2 | 4 | 2 | 8 | 32 | 128 | > 128 | 105 | 52.6 |
| COc1ccc(CC(=O)Nc2cc[n+](CCCOc3ccc(C(=O)/C=C/c4ccccc4)cc3)cc2)cc1.[Br-] | 8 | 16 | 8 | 16 | 16 | 128 | 64 | 128 | 128 | > 128 | 724 | 90.5 |
| CCCCCCCCCCCC[N+](C)(C)CCCOc1ccc(C(=O)/C=C/c2ccccc2)cc1.[Br-] | 4 | 16 | 4 | 4 | > 128 | 8 | 64 | 64 | 128 | > 128 | 220 | 55.1 |
| O=C(/C=C/c1ccccc1)c1ccc(OCCC[n+]2ccc(NC(=O)c3ccc4ccccc4c3)cc2)cc1.[Br-] | > 128 | > 128 | > 128 | > 128 | > 128 | > 128 | > 128 | > 128 | > 128 | > 128 | > 1280 | > 10 |
| CCCCNC(=O)C[N+](C)(C)CCCOc1ccc(/C=C/C(=O)c2ccc(OCCC[N+](C)(C)CC(=O)NCCCC)cc2)cc1.[Br-].[Br-] | 2 | 4 | 8 | 4 | 8 | 4 | 32 | > 128 | 16 | > 128 | > 1280 | > 160 |
| CCCCCC[N+](C)(C)CCCOc1ccc(C(=O)/C=C/c2ccccc2)cc1.[Br-] | 4 | 16 | 16 | 16 | 16 | 8 | 64 | 64 | > 128 | > 128 | 49.6 | 3.1 |
| CCCCCCCC[N+](C)(C)CCCCCOc1ccc(C(=O)/C=C/c2ccccc2)cc1.[Br-] | 2 | 4 | 2 | 4 | 2 | 4 | 8 | 8 | 128 | > 128 | 50.5 | 25.2 |
| CCCCCCCCCCCC(=O)Nc1cc[n+](CCCOc2ccc(C(=O)/C=C/c3ccccc3)cc2)cc1.[Br-] | 8 | 8 | 16 | > 128 | 8 | 128 | > 128 | > 128 | > 128 | > 128 | 753 | 47.1 |
| CCCCOc1cc[n+](CCCOc2ccc(/C=C/C(=O)c3ccc(OCCC[n+]4ccc(OCCCC)cc4)cc3)cc2)cc1.[Br-].[Br-] | 1 | 2 | 4 | 1 | 0.5 | 1 | 8 | 128 | 16 | 64 | > 1280 | > 320 |
| CCCCCCCCCCCCCC[N+](C)(C)CCCOc1ccc(/C=C/C(=O)c2ccc(OCCC[N+](C)(C)CCCCCCCCCCCCCC)cc2)cc1.[Br-].[Br-] | 64 | 64 | 128 | > 128 | > 128 | > 128 | 128 | 128 | > 128 | > 128 | 28.4 | 0.2 |
| CCCCCCCC[N+](C)(C)CCCOc1ccc(/C=C/C(=O)c2ccc(OCCC[N+](C)(C)CCCCCCCC)cc2)cc1.[Br-].[Br-] | 1 | 1 | 1 | 1 | 2 | 1 | 16 | 32 | 4 | 16 | 129 | 129 |
| O=C(Cc1ccc(-c2ccccc2)cc1)Nc1cc[n+](CCCOc2ccc(C(=O)/C=C/c3ccccc3)cc2)cc1.[Br-] | > 128 | 128 | > 128 | > 128 | > 128 | > 128 | > 128 | > 128 | > 128 | > 128 | > 1280 | > 10 |
| O=C(CC12CC3CC(CC(C3)C1)C2)Nc1cc[n+](CCCOc2ccc(C(=O)/C=C/c3ccccc3)cc2)cc1.[Br-] | 32 | 64 | 128 | 64 | 64 | 64 | > 128 | > 128 | > 128 | > 128 | 708 | 5.5 |
| CCCCCCCCCCNC(=O)C[N+](C)(C)CCCOc1ccc(/C=C/C(=O)c2ccc(OCCC[N+](C)(C)CC(=O)NCCCCCCCCCC)cc2)cc1.[Br-].[Br-] | 32 | 16 | 64 | 32 | > 128 | 64 | > 128 | 128 | > 128 | > 128 | 66.1 | 1 |
| CCCC(=O)Nc1cc[n+](CCCOc2ccc(C(=O)/C=C/c3ccccc3)cc2)cc1.[Br-] | > 128 | > 128 | > 128 | > 128 | > 128 | > 128 | > 128 | > 128 | > 128 | > 128 | > 1280 | > 10 |
| CCCCCCCCOc1cc[n+](CCCOc2ccc(/C=C/C(=O)c3ccc(OCCC[n+]4ccc(OCCCCCCCC)cc4)cc3)cc2)cc1.[Br-].[Br-] | 64 | 64 | 32 | 64 | 64 | 32 | 64 | 128 | 128 | 128 | 180 | 5.6 |
| CCCCCCCCCC[N+](C)(C)CCCOc1ccc(C(=O)/C=C/c2ccccc2)cc1.[Br-] | 8 | 4 | 4 | 8 | 64 | 16 | 128 | > 128 | > 128 | > 128 | 756 | 189 |
| CCCCCCCCCC[N+](C)(C)CCCCCOc1ccc(C(=O)/C=C/c2ccccc2)cc1.[Br-] | 4 | 4 | 4 | 4 | 4 | 8 | 16 | 16 | 64 | > 128 | 42 | 10.5 |
| CCCCCCCC(=O)Nc1cc[n+](CCCOc2ccc(C(=O)/C=C/c3ccccc3)cc2)cc1.[Br-] | 2 | 2 | 2 | 2 | 4 | 8 | 16 | 128 | 32 | > 128 | 887 | 443 |
| CCCCCCCCCCOc1cc[n+](CCCOc2ccc(/C=C/C(=O)c3ccc(OCCC[n+]4ccc(OCCCCCCCCCC)cc4)cc3)cc2)cc1.[Br-].[Br-] | 128 | 128 | 128 | 128 | 128 | 8 | 16 | 32 | 128 | > 128 | 161 | 1.3 |
